Experimental findings from patent US20250066319A1, “NOVEL ACID ADDITION SALT AND CRYSTALLINE FORM OF (2R, 3S)-2-(3-(4,5-DICHLORO-1H-BENZO[d]IMIDAZOL-1-YL)PROPYL)PIPERIDIN-3-OL” (Daewoong Pharmaceutical Co., Ltd., priority 2021, published 2025) are described below.

Each structure is given as a SMILES string. Counter-ions that a name gives are not always drawn.

Data set [1] in a line: Differential scanning calorimetry analysis after severe test with respect to temperature. It is filed as physicochemical. As to conditions: high temperature condition (60° C.), 1 week and 8 weeks; Monohydrochloride. The method, then: For (2R,3S)-2-(3-(4,5-dichloro-1H-benzo[d]imidazol-1-yl)propyl)piperidin-3-ol monohydrochloride prepared in Example 1-1 and (2R,3S)-2-(3-(4,5-dichloro-1H-benzo[d]imidazol-1-yl)propyl)piperidin-3-ol dihydrochloride prepared in Comparative Example 1, each beaker was taken out 1 week and 8 weeks after the start of the test from the desiccator where the severe tests with respect to temperature were in progress, and the differential scanning calorimetry analysis was performed. At this time, the differential scanning calorimetry analysis was performed using a differential scanning calorimeter (DSC Q20, manufactured by TA Instruments) in a tightly closed pan under nitrogen purge at a scan rate of 10° C./min while raising the temperature from 20° C. to 300° C.
Background: DSC measures the heat that a sample takes up or gives off during a temperature scan.

Data set [2] has as its target T1, PRS protein (prolyl-tRNA synthetase, PRS portion of EPRS) (Homo sapiens, UniProt P07814).
T1 construct: the portion corresponding to PRS in cDNA of EPRS was subcloned; made in house
T1 sequence (P07814 1007-1512 limits assumed): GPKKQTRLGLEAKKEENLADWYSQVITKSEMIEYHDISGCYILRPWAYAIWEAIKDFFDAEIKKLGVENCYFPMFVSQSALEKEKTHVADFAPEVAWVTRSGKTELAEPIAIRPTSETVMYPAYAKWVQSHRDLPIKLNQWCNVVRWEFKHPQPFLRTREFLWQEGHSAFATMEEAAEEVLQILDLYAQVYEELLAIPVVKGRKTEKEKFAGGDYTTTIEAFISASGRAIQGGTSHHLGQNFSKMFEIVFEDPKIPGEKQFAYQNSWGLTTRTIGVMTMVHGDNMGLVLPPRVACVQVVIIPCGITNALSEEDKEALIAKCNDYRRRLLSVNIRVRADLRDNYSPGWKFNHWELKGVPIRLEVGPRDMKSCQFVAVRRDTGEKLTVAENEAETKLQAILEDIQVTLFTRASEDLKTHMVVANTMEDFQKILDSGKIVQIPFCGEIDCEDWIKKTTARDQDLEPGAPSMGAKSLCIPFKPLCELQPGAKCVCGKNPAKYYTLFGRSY
As to the kind of experiment: PRS enzyme activity inhibition experiment. Conditions: [3H]proline, 37° C., 5 to 10 minutes. It is filed as biochemical. As to the method: IC50 values of PRS enzyme activity inhibition of the (2R,3S)-2-(3-(4,5-dichloro-1H-benzo[d]imidazol-1-yl)propyl)piperidin-3-ol monohydrochloride prepared in Example 1-1 were measured as follows.
Specifically, the portion corresponding to PRS in cDNA of EPRS was subcloned, and the obtained high-purity PRS protein was purified and used in the experiment. The compounds (1 μM) prepared in Examples were added into the reaction buffer (20 mM KPO4 (pH 7.4), 6 mM MgAc, 5 mM ATP, […] tRNA, 0.5 mM DTT, 20 mCi[^3H]proline (1 mCi/mL)) and allowed to react at 37° C. for 5 to 10 minutes. The reaction was terminated with 3M paper that was in advance dried by addition of 5% TCA. The radioactivity was measured using a liquid scintillation counter. % Inhibition and IC50 values of the compounds were calculated and analyzed using Microsoft Excel or Sigma Plot 8.0.

Data set [3] is described as follows: Hygroscopicity test (weight change in desiccators of constant relative humidity). Also noted: scale not given here. As to conditions: room temperature, one day. It is filed as physicochemical. As to the method:
The hygroscopicity tests of the acid addition salts prepared in Examples 1-1 to 1-6 and Comparative Example 1 were performed.
After one day, the change in weight was measured, then transferred to another desiccator and the previous experiment was repeated. At this time, for sorption analysis, the weight change was measured by moving the sample from a low-humidity desiccator to a high-humidity desiccator, and for desorption analysis, the weight change was measured by transferring the sample from a high-humidity desiccator with high humidity to a low-humidity desiccator.

Data set [4] is described as follows: Stability confirmation: severe test with respect to moisture, HPLC peak area of main component. In kind it is physicochemical. Conditions: 93% RH, open beaker, Monohydrochloride. As to the method: (§1) The acid addition salts prepared in some Examples and Comparative Examples were subjected to stability tests against high temperature and high humidity.
And, the severe tests with respect to moisture were performed by placing 50 mg of a sample in a 10 ml beaker, and measuring the content of impurities using HPLC (Azura, KNAUER, P6.1 1 L, DAD 6.1 L) after 1 week, 2 weeks, 4 weeks, and 8 weeks while storing the sample in a 93% RH desiccator in a state that the lid was not closed so that the sample has sufficient contact with the moisture in the air.
(§2) At a fixed time after the start of the test, one vial or beaker was taken out from each time point (the number of samples per test: n=1), and impurities were analyzed using HPLC under the conditions shown in Table 3 below. Then, the peak area was determined through integration for all the detected peaks, and then the relative peak area (%) for the main component was calculated and expressed as an average value.

The nature of data set [5]: Stability confirmation: severe test with respect to temperature, HPLC peak area of main component. It is filed as physicochemical. As to conditions: 60° C., relative humidity less than 10%, Monohydrochloride. As to the method: as §1
Specifically, the severe tests with respect to temperature were performed by placing 50 mg of a sample in a vial, closing the lid, and then measuring the content of impurities using HPLC (Azura, KNAUER, P6.1 1 L, DAD 6.1 L) after 1 week, 2 weeks, 4 weeks, and 8 weeks while storing in a chamber at 60° C. and a relative humidity of less than 10%.
as §2

In general, IC50 refers to the point on the concentration scale where inhibition reaches its midpoint. Regarding `O[C@H]1CCCN[C@@H]1CCCn1cnc2c(Cl)c(Cl)ccc21` [Example 1-1, (2R,3S)-2-(3-(4,5-dichloro-1H-benzo[d]imidazol-1-yl)propyl)piperidin-3-ol Monohydrochloride], the “change in differential scanning calorimetry analysis pattern” value in data set [1] is on record as “does not show any change in differential scanning calorimetry analysis pattern”. This compound also returned an IC50 in data set [2] of 74 nM. Moreover, the “weight change, desorption” value in data set [3] (11% RH, Monohydrochloride) came out at 100.8; in data set [3] (33% RH, Monohydrochloride), 101.2; in data set [3] (54% RH, Monohydrochloride), 100.8; in data set [3] (75% RH, Monohydrochloride) it was 101.7. For the same compound, the “weight change, sorption” value in data set [3] (11% RH) is on record as 100; in data set [3] (33% RH, Monohydrochloride), 100; in data set [3] (54% RH, Monohydrochloride), 101; in data set [3] (75% RH, Monohydrochloride), 101.6; in data set [3] (93% RH, Monohydrochloride), 101.6. For the same compound, the “relative peak area for the main component (HPLC)” value came out at 99.8% in data set [4] (after 1 week); 99.9% in data set [4] (after 2 weeks); 99.8% in data set [4] (after 4 weeks); 99.9% in data set [4] (after 8 weeks); 99.9% in data set [4] (initial); 99.9% in data set [5] (after 1 week). In addition, the “relative peak area for the main component (HPLC)” value amounted to 99.8% in data set [5] (after 2 weeks), 99.9% in data set [5] (after 4 weeks), 99.8% in data set [5] (after 8 weeks) and 99.9% in data set [5] (initial).
